In paper PMC5673977, “Transport Deficiency Is the Molecular Basis of Candida albicans Resistance to Antifungal Oligopeptides” (Frontiers in Microbiology, 2017):
≈ marks a conversion by molar mass, not a printed value. Where two headings read alike, the source gives them in different places. Where a SMILES comes first, the peptide text is derived from it. [ ]: non-standard residue; d: D form. The star is where a group is joined. Fumaryl(OMe) = COC(=O)/C=C/C(=O)*; Dap = NC[C@H](N)C(=O)O

Key:
Assay type in all cases: cell-based, Candida albicans
[1] = system: C. albicans opt1–opt5Δ ptr2Δ ptr22Δ; conditions: turbidity 531 nm, at least 80% decrease
Protocol: (§1) Strains were grown at 30°C in YPD medium (1% yeast extract, 2% peptone, and 2% glucose) and stored on YPD plates containing 2% agar. Susceptibility testing was performed in YPD and other three media: (a) RPMI-1640 w/o sodium bicarbonate, with L-glutamine + 2% glucose + 3.45% MOPS, pH adjusted to 7.0; (b) YNB-AS—Yeast Nitrogen Base w/o amino acids (contains ammonium sulfate 5 g L^-1) + 2% glucose; (c) YNB-SG—Yeast Nitrogen Base w/o amino acids and ammonium sulfate + 2% glucose + 0.2 g L^-1 sodium glutamate. In their solid version, used for the mutant generation and isolation, YNB-AS and YNB-SG contained 2% agar.
(§2) The in vitro growth inhibitory activity of antifungals was quantified by determination of minimal inhibitory concentration (MIC) values by the serial twofold dilution method, using the 96-well microtiter plates in three media: buffered RPMI-1640, YNB-AS, and YNB-SG. Conditions of the RPMI-1640-based assay were the same as outlined in the CLSI recommendations ([Clinical Laboratory Standards Institute, 2008]), except for the end-point readout that was done by spectrophotometric determination of cell density at 531 nm. Turbidity in individual wells was measured with a microplate reader (Victor^3; Perkin Elmer). MIC was defined as the lowest drug concentration that gave at least an 80% decrease in turbidity, relative to that of the drug-free growth control.
(§3) The 96-well microtiter plates were also used for determination of in vitro growth inhibitory activity in YPD and YNB-based media. Individual wells were inoculated with 5 × 10^3 cfu mL^-1 of C. albicans cells from the overnight culture in YPD medium. The inoculated plates were incubated 37°C for 24 h and then turbidity was measured with a microplate reader at 531 nm, as described above for the RPMI-1640-based assay.

[2] = system: C. albicans SC5314; conditions: for MIC: SC 5314
Protocol: as §1, §2, §3

[3] = system: C. albicans opt4Δ; conditions: turbidity 531 nm, at least 80% decrease
Protocol: as §1, §2, §3

[4] = system: C. albicans opt5Δ; conditions: turbidity 531 nm, at least 80% decrease
Protocol: as §1, §2, §3

[5] = system: C. albicans opt1–opt5Δ; conditions: turbidity 531 nm, at least 80% decrease
Protocol: as §1, §2, §3

[6] = system: C. albicans opt1Δ; conditions: turbidity 531 nm, at least 80% decrease
Protocol: as §1, §2, §3

[7] = system: C. albicans ptr2Δ ptr22Δ; conditions: turbidity 531 nm, at least 80% decrease
Protocol: as §1, §2, §3

[8] = system: C. albicans opt2Δ opt3Δ; conditions: turbidity 531 nm, at least 80% decrease
Protocol: as §1, §2, §3

[9] = system: C. albicans isolate LNF3; conditions: YNB-SG medium
From the text: as §2, §3
(§4) Candida albicans cells, apparently resistant to FMDP-peptides, were isolated from the individual colonies formed on the surface of YNB-SG agar medium containing FMDP-peptide, 10 μg mL^-1 or within the growth inhibitory zones around the paper discs saturated with 10 μL of the FMDP-peptide solution, 1 mg mL^-1. In both versions, the agar surface was inoculated with 10^5 cells from the overnight culture in YPD medium, washed three times with sterile water, suspended in 0.2 mL of sterile water and the cell suspension was spread on the whole surface with a sterile glass rod. Plates were incubated for 48 h at 30°C and isolated colonies were picked with a platinum loop.
(§5) Growth inhibitory activity of FMDP-oligopeptides against C. albicans SC 5314 was also determined by the disc diffusion method. […] Cells grown in these colonies were collected, re-grown in YNB-AS and tested for sensitivity to FMDP-oligopeptides.

[10] = system: C. albicans isolate NF2; conditions: YNB-SG medium
From the text: as §2, §3, §4, §5

[11] = system: C. albicans isolate LNF1; conditions: YNB-SG medium
From the text: as §2, §3, §4, §5

[12] = system: C. albicans isolate NF1; conditions: YNB-SG medium
From the text: as §2, §3, §4, §5

[13] = system: C. albicans isolate LNF2; conditions: YNB-SG medium
From the text: as §2, §3, §4, §5

[14] = system: C. albicans isolate NF3; conditions: YNB-SG medium
From the text: as §2, §3, §4, §5

[15] = system: C. albicans opt5Δ; test: Initial peptide uptake rate; conditions: 50 mM potassium phosphate buffer (pH 5.0 or 6.5) + 1% glucose, 30°C, 100 μM peptide, TNBS A420, slope 0- to 10-min
Procedure, shortened: (§6)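 Exponentially grown yeast in 50 mM potassium phosphate (pH 5.0 or 6.5) with 1% glucose at 30°C received oligopeptide at a final 100 μM. Residual peptide in filtrates was measured every 5 min by trinitrobenzenesulfonate assay (A420). Initial rates come from 0–10 min slopes, per mg dry cells.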

[16] = system: C. albicans opt2Δ opt3Δ; test: Initial peptide uptake rate; conditions: 50 mM potassium phosphate buffer (pH 5.0 or 6.5) + 1% glucose, 30°C, 100 μM peptide, TNBS A420, slope 0- to 10-min
Procedure, shortened: as §6

[17] = RPMI-1640 medium, MOPS pH 7.0, CLSI conditions

COC(=O)/C=C/C(=O)NC[C@H](N)C(=O)N[C@@H](CCCCN)C(=O)N[C@@H](CCCCN)C(=O)N[C@H](C(=O)N[C@H](C(=O)N[C@@H](Cc1ccccc1)C(=O)N[C@@H](Cc1c[nH]c2ccccc12)C(=O)N[C@H](C(=O)N[C@@H](CCCCN)C(=O)N[C@@H](Cc1ccccc1)C(=O)N[C@@H](CCCCN)C(=O)O)C(C)C)C(C)C)C(C)C [Peptide F11, FMDP-Lys-Lys-Val-Val-Phe-Trp-Val-Lys-Phe-Lys] (H-[Dap](Fumaryl(OMe))KKVVFWVKFK-OH; N-terminus assumed)
MIC [1, 17]: >128 µg/mL
MIC ([1]; YNB-AS medium, 37°C, 24 h): >128 µg/mL
MIC ([2]; RPMI-1640 medium, MOPS pH 7.0, CLSI conditions, turbidity 531 nm, at least 80% decrease): >128 µg/mL
MIC ([2]; YNB + L-Gln (0.3 g L^-1) pH 5.0): 16 µg/mL
MIC ([2]; YNB + L-Gln (0.3 g L^-1) pH 7.0): >128 µg/mL
MIC ([2]; YNB + amino acid mixture (composition as in RPMI-1640)): >128 µg/mL
MIC ([2]; YNB-AS medium, 5 × 10^3 cfu mL^-1, 37°C, 24 h, turbidity 531 nm, at least 80% decrease): 16 µg/mL (≈ 10.6 µM)
MIC ([2]; growth medium YNB-SG (Table 6)): 1.0 µg/mL (≈ 0.664 µM)
Increase of MICs in presence of Ala-Ala-Ala-Ala ([2]; YNB-SG + Ala-Ala-Ala-Ala 1 g L^-1): 16- to 64 fold
Effect of N-acetyl-D-glucosamine supplementation on growth inhibitory activity ([2]; YNB-SG medium + N-acetyl-D-glucosamine, 10 mM): complete elimination of growth inhibitory activity
Effect of supplementation with Ala-Ala or Ala-Ala-Ala on activity ([2]; YNB-based media + Ala-Ala or Ala-Ala-Ala, 1 g L^-1, 'similar effect' = complete elimination of activity as with Bacto Peptone): no effect
MIC in YNB-AS, times higher than in YNB-SG ([2]; wild type SC5314): 8–16 times
MIC [3, 17]: >128 µg/mL
MIC ([3]; YNB-AS medium, 37°C, 24 h): 32 µg/mL (≈ 21.2 µM)
MIC [4, 17]: >128 µg/mL
MIC ([4]; YNB-AS medium, 37°C, 24 h): 16 µg/mL (≈ 10.6 µM)
MIC [5, 17]: >128 µg/mL
MIC ([5]; YNB-AS medium, 37°C, 24 h): >128 µg/mL
MIC [6, 17]: >128 µg/mL
MIC ([6]; YNB-AS medium, 37°C, 24 h): 32 µg/mL (≈ 21.2 µM)
MIC [7, 17]: >128 µg/mL
MIC ([7]; YNB-AS medium, 37°C, 24 h): 16 µg/mL (≈ 10.6 µM)
MIC [8, 17]: >128 µg/mL
MIC ([8]; YNB-AS medium, 37°C, 24 h): 128 µg/mL (≈ 84.9 µM)
MIC [9]: 16 µg/mL (≈ 10.6 µM)
MIC [10]: 32 µg/mL (≈ 21.2 µM)
MIC [11]: 16 µg/mL (≈ 10.6 µM)
MIC [12]: 16 µg/mL (≈ 10.6 µM)
MIC [13]: 32 µg/mL (≈ 21.2 µM)
MIC [14]: 16 µg/mL (≈ 10.6 µM)
Uptake rate ± SD [15]: 1.92 ± 0.18 nmol min^-1 (mg dry weight)^-1
Uptake rate ± SD [16]: 0.22 ± 0.03 nmol min^-1 (mg dry weight)^-1
